What was measured:
[1] = system: subcutaneous chondrosarcoma tumors; experiment: Chondrosarcoma tumor growth delay after PDT; type: in vivo, Sprague-Dawley rats; conditions: rats; drug dose 2.0 μmol/kg; light dose 125 J/cm2; optimal conditions, 24 hrs post drug administration
Experimental: The carbamate compounds were formulated in egg yolk phosphatidyl choline (EYP) and phosphate buffered saline (PBS) (pH 7.4). These were sterilized by filtration through a 0.2-micron nylon filter and determined to be stable for at least several weeks following formulation by HPLC. Five Sprague-Dawley rats with subcutaneous chondrosarcoma tumors in the flank of a certain volume (150-250 mm^3) were injected intravenously with various drugs at various doses. Three hours after the injection the tumors were exposed to 664-nm light at light doses of 125 J/cm^2 or 200 J/cm^2. The end point of the study was the observation of tumor regrowth (averaged over the animals) following the treatment.
Table 2 illustrates the results for the best drug and light doses that were tested in the above system and are compared with the well known photosensitizer SnET2 under optimal conditions (24 hrs post drug administration).

[2] = system: normal skin; experiment: Normal skin clearance (skin response) of photosensitizers in irradiated hairless rats; type: in vivo; conditions: drug dose 0.5 μmol/Kg, light dose 150 mW/cm^2/125 J at activation wavelength, time point post injection
Source text: Ester and amide cleavage appear to be the major metabolic routes. As stated previously, one of the inventors' surprising and unexpected biological observations was that the carbamate analogs produce limited skin phototoxicity. Table 1 outlines the normal skin clearance of several carbamate photosensitizers as determined by irradiating hairless rats at the activation wavelength of the photosensitizer at 150 mW/cm2/125 J at different time points post injection. As can be clearly seen, carbamate analogs elicit skin responses at very early time points (1-6 hrs) and not past 6 hrs. […] Examples in Table (1) include compounds (26) and (Chl) and (37) and (35). In these cases the hydroxylated parent tetrapyrroles (Chl) and (35), at drug doses of 0.5 μmol/Kg, elicit maximal normal skin responses at 24 and 48 hrs, respectively. By comparison, their carbamate analogs (26) and (37), at drug doses of 1.0 μmol/Kg and 1.5 μmol/Kg, respectively, elicit maximal skin responses at 6 hrs only. Clearly, if ester metabolism of the carbamate back to the parent hydroxylated macrocycle was rapid in blood plasma one would expect skin responses similar to parent hydroxylated macrocycle. This is not the case. It is known by the present inventors and others that metabolism of the propionic acid methyl ester functionality is generally slow in rat and human blood plasma (10-20% metabolism at 24 hrs).

Row | Compound | Days (regrowth) [1] | Skin Response [2]
1 | CCOC(=O)C1=Cc2c3nc(cc4nc(cc5[n-]c(cc6[n-]c2c(C)c6CC)c(C)c5CC)C(C)=C4CC)[C@@H](C)[C@]13CC.[Cl-].[Cl-].[Sn] (racemic) [SnET2, Tin Ethyletiopurpurin] | 13 days | –
2 | diethanolsulfonylamide zinc octaethylbenzochlorin [(35)] | – | 48 h

Source: patent publication US20040266748A1, “Photosensitizing carbamate derivatives” (priority 2001, published 2004)
